Eight molecules from US20250216399A1, “NONSPECIFIC REACTION INHIBITOR” (PHC CORPORATION, priority 2022, published 2025) can be followed below.

Ends that are not written are not given here. PEG 20 kDa = 20 kDa PEG attached through the N-terminal amino group; l = locked nucleic acid (LNA); {C6NH2} = Amino C6 linker; d = 2'-deoxy (DNA); r = 2'-OH (RNA); f = 2'-fluoro

For series [1], the system named is human IgG (polyclonal immunoglobulin G) (Homo sapiens). In words: BLI. Conditions: upper case RNA, lower case DNA; 2'-F at U6, U9, C20, U21; LNA at A18; 5' amino C6 linker conjugated to 20 kDa PEG (Jenkem ME); response of IgG on immobilised anti-human IgG antibody with 0.3 mg/mL PEG-aptamer (7.9093 nm without inhibitor); indirect, inhibition of IgG-antibody reaction ….

The subject of the next series is human IgA. Description: Reaction inhibitory effect on human IgA, Bio-Layer Interferometry (Octet R2), anti-human IgA antibody and human IgA. Format: binding. The following applies: for Response: human IgA, not added 2.1381. How it is done:
(§1) As a model system to confirm the non-specific inhibitory effect, an anti-human IgG antibody and human IgG, or an anti-human IgA antibody and human IgA were used, and the reaction inhibitory effect on the IgG-binding peptide or the IgA-binding peptide with smaller molecular weights than antibody fragments, with or without PEG modification, was confirmed.
(§2) The measurements were performed using Bio-Layer Interferometry (BLI) using Octet(trademark) R2 (manufactured by SARTORIUS), which was a biomolecular interaction analysis system. The basic principles of the Bio-Layer Interferometry are briefly explained below. When light of a specific wavelength is projected onto a layer of biomolecules fixed on the surface of a sensor chip, the light is reflected from both the surface of the biomolecular layer and the internal reference layer, resulting in an optical interference wave. When molecules in the measurement sample bind to the biomolecules on the surface of the sensor chip, the thickness of the layer at the tip of the sensor increases, causing a wavelength shift in the interference wave. By measuring this change in wavelength shift, it is possible to quantify and kinetically analyze in real time the number of molecules that bind to the biomolecules immobilized on the sensor chip surface. In this Example, the test sample and a non-specific reaction inhibitor were allowed to coexist in the measurement sample, and human IgG or human IgA was absorbed in the sample solution. The measurements were carried out according to the operating manual attached to the OctetR2.
(§3) As an antibody solution, an anti-human IgA polyclonal rabbit antibody (manufactured by Dako) was diluted with PBS(−) to 25 μg/mL to prepare an anti-human IgA antibody solution. As a sample solution, the test sample was human IgA adjusted to 250 μg/mL in PBS(−), and to 20 μL of this test sample, the IgA-binding peptide or the IgA-binding peptide modified with 20 kDa PEG was added to a final concentration of 25 μg/mL or 50 μg/mL, respectively, and the total volume was adjusted to 200 μL to prepare the R1.
Measurements using OctetR2 were performed in the same manner as for confirming the reaction inhibitory effect on human IgG.
On the technique in general: In BLI a coated tip is dipped into the sample, and binding shifts an interference pattern.

The test system of series [2] is human IgG. Description: Reaction inhibitory effect of IgG-binding nucleic acid aptamer on anti-human IgG antibody and human IgG, Bio-Layer Interferometry. Conditions: 0.3 mg/mL; not added 7.9093. How it is done:
For nucleic acid aptamers, the reaction inhibitory effect with or without PEG modification was confirmed using a model system to confirm the non-specific inhibitory effect in the same manner as in Example 2.
The test sample and measurements were performed under the same assay conditions as in Example 2. In this Example, the test sample and a non-specific reaction inhibitor were allowed to coexist in the measurement sample, and human IgG was absorbed in the sample solution. The measurements were carried out according to the operating manual attached to the OctetR2.
Anti-human IgG polyclonal rabbit antibody (manufactured by Dako) was diluted with PBS(−) to 25 μg/mL to prepare an anti-human IgG antibody solution. The sample solution used was human IgG at 1 mg/mL in PBS(−), with 20 μL of this test sample, and either the IgG-binding nucleic acid aptamer or the IgG-binding nucleic acid aptamer modified with 20 kDa PEG added to a final concentration of 0.3 mg/mL, and then prepared with reaction buffer (145 mmol/L NaCl, 5.4 mmol/L KCl, 0.8 mmol/L MgCl2, 1.8 mmol/L CaCl2, 20 mmol/L Tris (pH 7.6), 0.05% Tween 20) to make a total volume of 200 μL.

Series [3] has as its system human IgG. Description: Reaction inhibitory effect on human IgG, Bio-Layer Interferometry (Octet R2), anti-human IgG antibody and human IgG. Conditions: for Response: human IgG, not added 6.6462. Format: binding. How it is done:
as §1, §2
as §3, with “IgG” for “IgA”, “1 mg/mL” for “250 μg/mL”, “IgG-binding” for “IgA-binding”, “first reagent (hereinafter referred to as R1) of LPIA Genesis TAT (manufactured by LSI Medience Corporation), which was a thrombin-antithrombin III complex (hereinafter referred to as TAT) measurement reagent.” for “R1.”
The sample solution and the anti-human IgG antibody solution were added to the designated wells of a 96-well black plate (manufactured by Greiner Bio-One) at 200 μL per well. To the baseline, dissociation and washing wells, 200 μL of PBS(−) was added. This plate and a biosensor (Biosensor/ProL: manufactured by SARTRIUS) were placed in the designated positions of the OctetR2. After operating the OctetR2 under the conditions shown in Table 1 below and acquiring data, the wavelength shift change (Response) was calculated using the analysis software included with the OctetR2. The measurements were carried out at a temperature of 30° C.

For series [4], the system named is non-specific reaction substance (IgG) of sample A, human plasma. Description: Non-specific reaction inhibitory effect, Bio-Layer Interferometry, sample A (human plasma) against anti-TAT antibody. The format is binding. How it is done: The measurement was carried out under the same assay conditions as described in Example 2. In this Example, sample A and a non-specific reaction inhibitor were allowed to coexist in the measurement sample, and the non-specific reaction substances were absorbed in the sample solution.
The antibody solution used was an anti-TAT antibody solution prepared by diluting the anti-TAT antibody used in the second reagent (hereinafter referred to as R2) of LPIA Genesis TAT, which was characterized by containing latex particles to which a monoclonal antibody with specific binding ability to TAT was immobilized, with PBS(−) to a concentration of 25 μg/mL. The sample solution was prepared by adding a final concentration of 25 μg/mL or 50 μg/mL of IgG-binding peptide or 20 kDa PEG-modified IgG-binding peptide as a non-specific reaction inhibitor to 20 μL of the test sample diluted 10-fold with PBS(−), and adjusting the total volume to 200 μL with R1.
Using the same assay conditions as those described in Example 3, the non-specific reaction inhibitory effects of the PEG-modified peptides described in Examples 2 and 3 and the prepared PEG-modified antibody fragment were compared. The amounts of non-specific reaction inhibitor added were 25 μg/mL, 50 μg/mL, 100 μg/mL, 200 μg/mL, or 400 μg/mL, and the test sample was the same as sample A in Example 3.
The assay was carried out under the same conditions as described in Example 3. As non-specific reaction inhibitors, sample solutions were prepared to which PEG-modified peptides chemically modified with 5 kDa, 10 kDa, 20 kDa, and 30 kDa PEG were added, and the non-specific reaction inhibitory effect of each was confirmed. The amounts of non-specific reaction inhibitors added were 5 μg/mL, 10 μg/mL, or 20 μg/mL, and the test sample was the same as Sample A in Examples 3 and 4.

The subject of series [5] is non-specific reaction substances of sample A, human plasma. Description: Non-specific inhibitory effect in latex agglutination method on automatic analyzer STACIA (LPIA Genesis TAT). How it is done: The non-specific inhibitory effect of the IgG-binding peptide and PEG-modified IgG-binding peptide used in Example 2 was confirmed by the latex agglutination method.
The measurements were performed using automated operation of an automatic analyzer, STACIA (manufactured by LSI Medience Corporation). In the STACIA measurement, two main operations were carried out. In the first operation, the sample to be measured was diluted with R1 and heated at 37° C. for 3.5 minutes. In the second operation, R2 was added to the reaction solution and the mixture was incubated at 37° C. for 6 minutes to induce latex agglutination. By optically monitoring the agglutination reaction, the amount of TAT or non-specific reaction substances in the samples to be measured was quantified. In this Example, the non-specific reaction inhibitor was added to R1 so that the concentration after sample addition was 0.05 mg/mL or 0.1 mg/mL, and non-specific reaction substances were absorbed during the first operation. […] The mixture ratio of the measurement sample, R1, and R2 was 20 μL:90 μL:90 μL. Latex agglutination was detected at a wavelength of 700 nm. The measured values were calculated by comparing the absorbance with a calibration curve obtained by measuring TAT of known concentrations. The test sample used was the same as sample A used in Examples 3 to 5.

Series [6] concerns the target human IgA (human). Description: BLI (Octet R2) competition: human IgA on immobilised anti-human IgA antibody with 25 µg/mL of the peptide.
Series [7] deals with human IgA (human). Description: BLI (Octet R2) competition: human IgA on immobilised anti-human IgA antibody with 50 µg/mL of the peptide.
[8] abbreviates: amount added 25 μg/mL, not added 5.7733.
Where [9] appears, read: amount added 50 μg/mL, not added 5.7733.
The mark [10] stands for this setting: amount added 0.05 mg/mL, not added 32.01.
Where [11] appears, read: amount added 0.1 mg/mL, not added 27.17.

For the molecule “GGAGGUGCUCCGAAAGGAACUCC [PEG-modified IgG-binding nucleic acid aptamer]”, the activity in series [1] came out at 4.96 nm.

As to “IgA-binding peptide: human IgA-binding peptide of approximately 1.8 kDa, amino acid sequence HMVCLSYRGRPVCFSL (SEQ ID NO: 2), reported for purification of human IgA [reference compound]”, the Response with human IgA (amount added 25 μg/mL) is recorded as 2.1805 nm; in the series with human IgA (amount added 50 μg/mL), 2.2263 nm.

As to “IgG-binding nucleic acid aptamer: human IgG-binding nucleic acid aptamer of approximately 7.5 kDa, N(6)_ggAGGU(F)GcU(F)ccgaaaGGA(L)aC(F)U(F)cc (DNA GGAGGUGCUCCGAAAGGAACUCC; sugars from the 5' end ddrrrfrdfddddddrrldffdd, 5' {C6NH2}, backbone and methylation of C not given here; further chemistry not fully specified)”, the “Human IgG (Response)” value with human IgG [2] is given as 7.6691 nm.

For the molecule “IgG-binding peptide: human IgG-binding peptide of approximately 1.5 kDa, amino acid sequence DCAWHLGELVWCT (SEQ ID NO: 1), known for purification of human IgG (human IgG binding peptide) [reference compound]”, the Response in the series on human IgG [3] (amount added 25 μg/mL) is reported as 7.4221 nm; in the series on human IgG [3] (amount added 50 μg/mL), 7.6293 nm; in series [4] (setting [8]), 6.5522 nm; in series [4] (setting [9]), 6.6331 nm. In addition, the “Sample A measured value (TAT calibration curve)” value in series [5] (setting [10]) is on record as 37.7 ng/mL; in series [5] (setting [11]), 42.85 ng/mL.

Take “PEG-modified IgA-binding peptide: IgA-binding peptide (SEQ ID NO: 2) with one molecule of 20 kDa PEG attached via the N-terminal amino group”: the Response in the series on human IgA (amount added 25 μg/mL) came out at 1.6061 nm; in the series with human IgA (amount added 50 μg/mL), 1.5374 nm. The “reaction inhibitory effect compared with the unmodified peptide” value in the series on human IgA (anti-human IgA antibody and human IgA) is listed as “stronger reaction inhibitory effect”.

As for “PEG-modified IgG-binding peptide: IgG-binding peptide (SEQ ID NO: 1) with one molecule of 20 kDa PEG attached via the N-terminal amino group ({PEG 20 kDa}-DCAWHLGELVWCT; cysteine pairing not given here)”, the Response in the series on human IgG [3] (amount added 25 μg/mL) was 3.1484 nm; in the series with human IgG [3] (amount added 50 μg/mL), 2.6181 nm; in series [4] (amount added 5 μg/mL, not added 6.0114), 5.5469 nm; in series [4] (amount added 10 μg/mL, not added 6.0114) it was 5.0054 nm; in series [4] (amount added 20 μg/mL, not added 6.0114), 3.8339 nm; in series [4] (setting [8]) it was 3.0487 nm. The Response is on record as 2.9829 nm in series [4] (setting [9]); 3.1926 nm in series [4] (amount added 100 μg/mL, not added 5.7733); 2.8092 nm in series [4] (amount added 200 μg/mL, not added 6.0744); 3.0917 nm in series [4] (amount added 400 μg/mL, not added 6.0744). Besides, in the series with human IgG [3] (anti-human IgG antibody and human IgG), the “reaction inhibitory effect compared with the unmodified peptide” value is reported as “stronger reaction inhibitory effect”. Moreover, the “effect in suppressing the non-specific reaction compared with the unmodified peptide” value in series [4] is listed as “greater effect in suppressing the non-specific reaction than the unmodified peptide”. Further, in series [4] (added in equal amounts), the “effect on inhibiting non-specific reactions compared with PEG-modified antibody fragment” value is recorded as “greater effect on inhibiting non-specific reactions than the PEG-modified antibody fragment”. In addition, the “Sample A measured value (TAT calibration curve)” value was determined as 10.84 ng/mL in series [5] (setting [10]) and 6.25 ng/mL in series [5] (setting [11]).

Consider HMVCLSYRGRPVCFSL [human IgA-binding peptide of approximately 1.8 kDa], for which the Response [nm] came to 2.18 nm in the series with human IgA (human) [6] and 2.23 nm in the series with human IgA (human) [7].

B1: IgA-binding peptide modified with 20 kDa PEG (peptide)
peptide: HMVCLSYRGRPVCFSL
modifications: one molecule of 20 kDa PEG (succinimide-activated) attached via the amino group at the N-terminus
Regarding B1, the figures for the Response [nm] with human IgA (human) [6] and with human IgA (human) [7] were 1.61 nm and 1.54 nm, respectively.
